Results on five molecules are retold here after patent publication US20220220152A1, “BIVALENT ANTAGONISTS OF INHIBITORS OF APOPTOSIS PROTEINS” (Hepagene Therapeutics (HK) Limited, priority 2019, published 2022).

The target of one test is T1, cIAP2-BIR3 (Homo sapiens, UniProt Q13489).
T1 construct: cIAP2-BIR3; purchased Reaction Biology APT-11-372
Kind of test: cIAP2-BIR3 fluorescence polarization binding assay. Particulars: FP, probe AbuRPFK-5FAM (SM5F) 5 nM, cIAP2-BIR3 80 nM, 60 min at 25° C. The method, boiled down:
(§1)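 Fluorescence polarization competition using 5-carboxyfluorescein-labelled peptide probe AbuRPFK-5FAM; protein and compound preincubated 15 min, probe added, then 60 min at 25° C.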

The next test addresses T2, cIAP1-BIR3 (Homo sapiens, UniProt Q13490).
T2 construct: cIAP1-BIR3; purchased Reaction Biology APT-11-370
Kind of test: cIAP1-BIR3 fluorescence polarization binding assay. Conditions: FP, probe AbuRPFK-5FAM (SM5F) 5 nM, cIAP1-BIR3 15 nM, 60 min at 25° C. The gist of the method: as §1

For another test, the target named is T3, XIAP-BIR3 (Homo sapiens, UniProt P98170).
T3 construct: XIAP-BIR3; purchased Reaction Biology APT-11-374
Kind of test: XIAP-BIR3 fluorescence polarization binding assay. Particulars: FP, probe AbuRPFK-5FAM (SM5F) 5 nM, XIAP-BIR3 40 nM, 60 min at 25° C. The method, boiled down: as §1

T3 sequence (P98170 241-356 limits assumed): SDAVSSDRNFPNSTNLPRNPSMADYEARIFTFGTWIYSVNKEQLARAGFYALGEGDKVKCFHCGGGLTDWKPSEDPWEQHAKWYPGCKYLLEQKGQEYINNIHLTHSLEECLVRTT
T1 sequence (Q13489 238-349 limits assumed): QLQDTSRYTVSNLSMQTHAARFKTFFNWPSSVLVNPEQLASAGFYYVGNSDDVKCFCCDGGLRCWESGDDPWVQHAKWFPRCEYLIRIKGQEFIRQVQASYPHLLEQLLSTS
T2 sequence (Q13490 253-363 limits assumed): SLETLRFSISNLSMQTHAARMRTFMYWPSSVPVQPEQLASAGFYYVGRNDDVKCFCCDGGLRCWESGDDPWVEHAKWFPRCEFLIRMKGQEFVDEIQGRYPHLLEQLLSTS

Take `CC[C@H](NC(=O)[C@H](C)NC)C(=O)N1CCC[C@H]1C(=O)N[C@@H]1CCCc2c(-c3cccc4c3CCC[C@H]4NC(=O)[C@@H]3CCCN3C(=O)[C@H](CC)NC(=O)[C@H](C)NC)cccc21` [V-I, (2S)-1-[(2S)-2-[(2S)-2-(methylamino)propanamido]butanoyl]-N-[1(5R,5′R)-5′-[(2S)-1-[(2S)-2-[(2S)-2-(methylamino)propanamido]butanoyl]pyrrolidine-2-amido]-5H,5′H,6H,6′H,7H,7′H,8H,8′H-[1,1′-binaphthalen]-5-yl]pyrrolidine-2-carboxamide; Bis(Formic Acid)]: the concentration for half-maximal inhibition (IC50) at cIAP2-BIR3 was in the range of 1 to 10 nM; at cIAP1-BIR3, 1 to 10 nM; at XIAP-BIR3 it was 10 to 100 nM.
For `CN[C@@H](C)C(=O)N[C@H](C(=O)N1CCC[C@H]1C(=O)N[C@@H]1CCCc2c(OCCN3CCN(CCOc4cccc5c4CCC[C@H]5NC(=O)[C@@H]4CCCN4C(=O)[C@@H](NC(=O)[C@H](C)NC)C4CCCCC4)CC3)cccc21)C1CCCCC1` [Compound IX, (2S)-1-[(2S)-2-cyclohexyl-2-[(2S)-2-(methylamino)propanamido]acetyl]-N-[(1R)-5-{2-[4-(2-{[(5R)-5-[(2S)-1-[(2S)-2-cyclohexyl-2-[(2S)-2-(methylamino)propanamido]acetyl]pyrolidine-2-amido]-5,6,7,8-tetrahydronaphthalen-1-yl]oxy}ethyl)piperazin-1-yl]ethoxy}-1,2,3,4-tetrahydmnaphthalen-1-yl]pyrrolidine-2-carboxamide], the figures for the concentration for half-maximal inhibition (IC50) at cIAP2-BIR3, on cIAP1-BIR3 and at XIAP-BIR3 were 10 to 100 nM, 1 to 10 nM and 100 to 1000 nM, respectively.
For the molecule `CN[C@@H](C)C(=O)N[C@H](C(=O)N1CCC[C@@H]1C(=O)N[C@@H]1CCCc2ccc(-c3ccc(-c4ccc5c(c4)[C@H](NC(=O)[C@@H]4CCCN4C(=O)[C@@H](NC(=O)[C@H](C)NC)C4CCCCC4)CCC5)cc3)cc21)C1CCCCC1` [Compound III-M, (2S)-1-[(2S)-2-cyclohexyl-2-[(2S)-2-(methylamino)propanamido]acetyl]-N-[(1R)-7-[4-[(8R)-8-[(2R)-1-[(2S)-2-cyclohexyl-2-[(2S)-2-(methylamino)propanamido]acetyl]pyrrolidine-2-amido]-5,6,7,8-tetrahydronaphthalen-2-yl]phenyl]-1,2,3,4-tetrahydronaphthalen-1-yl]pyrrolidine-2-carboxamide], the IC50 is 100 to 1000 nM at cIAP2-BIR3, 10 to 100 nM at cIAP1-BIR3 and greater than 1000 nM at XIAP-BIR3.
As for `CC[C@H](NC(=O)[C@H](C)NC)C(=O)N1CCC[C@H]1C(=O)N[C@@H]1CCCc2c(NC(=O)c3cccc4c3CCC[C@H]4NC(=O)[C@@H]3CCCN3C(=O)[C@H](CC)NC(=O)[C@H](C)NC)cccc21` [Compound VII-C, (2S)-1-[(2S)-2-[(2S)-2-(methylamino)propanamido]butanoyl]-N-[(1R)-5-[[(5R)-5-[(2S)-1-[(2S)-2-[(2S)-2-(methylamino)propanamido]butanoyl]pyrrolidine-2-amido]-5,6,7,8-tetrahydmnaphthalen-1-yl]carbamoyl]-1,2,3,4-tetrahydmnaphthalen-1-yl]pyrrolidine-2-carboxamide], the IC50 at cIAP2-BIR3 lay in the range of 10 to 100 nM; at cIAP1-BIR3 it was 1 to 10 nM; on XIAP-BIR3, 10 to 100 nM.
For the molecule `CN[C@@H](C)C(=O)N[C@@H](C)C(=O)N1CCC[C@H]1C(=O)N[C@@H]1CCCc2c(OCCCCCOc3cccc4c3CCC[C@H]4NC(=O)[C@@H]3CCCN3C(=O)[C@H](C)NC(=O)[C@H](C)NC)cccc21` [Compound I-C, (2S)-1-[(2S)-2-[(2S)-2-(methylamino)propanamido]popanoyl]-N-[(1R)-5-[(5-[[(5R)-5-[(2S)-1-[(2S)-2-[(2S)-2-(methylamino)propanamido]propanoyl]pyrrolidine-2-amido]-5,6,7,8-tetrahydmnaphthalen-1-yl]oxy]pentyl)oxy]-1,2,3,4-tetrahydronaphthalen-1-yl]pyrrolidine-2-carboxamide], the half-inhibitory concentration (IC50) at cIAP2-BIR3 lay in the range of 10 to 100 nM; on cIAP1-BIR3, 1 to 10 nM; on XIAP-BIR3, 100 to 1000 nM.
